In patent publication US8338465B2, “Cyclic carboxylic acid rhodanine derivatives for the treatment and prevention of tuberculosis” (priority 2006, dated 2012) one finds IC50 data, which are given here for 64 molecules.

The target in the first assay is T1, dihydrolipoamide acyltransferase (DlaT) (Mycobacterium tuberculosis, UniProt P9WIS7).
T1 sequence (P9WIS7 1-553): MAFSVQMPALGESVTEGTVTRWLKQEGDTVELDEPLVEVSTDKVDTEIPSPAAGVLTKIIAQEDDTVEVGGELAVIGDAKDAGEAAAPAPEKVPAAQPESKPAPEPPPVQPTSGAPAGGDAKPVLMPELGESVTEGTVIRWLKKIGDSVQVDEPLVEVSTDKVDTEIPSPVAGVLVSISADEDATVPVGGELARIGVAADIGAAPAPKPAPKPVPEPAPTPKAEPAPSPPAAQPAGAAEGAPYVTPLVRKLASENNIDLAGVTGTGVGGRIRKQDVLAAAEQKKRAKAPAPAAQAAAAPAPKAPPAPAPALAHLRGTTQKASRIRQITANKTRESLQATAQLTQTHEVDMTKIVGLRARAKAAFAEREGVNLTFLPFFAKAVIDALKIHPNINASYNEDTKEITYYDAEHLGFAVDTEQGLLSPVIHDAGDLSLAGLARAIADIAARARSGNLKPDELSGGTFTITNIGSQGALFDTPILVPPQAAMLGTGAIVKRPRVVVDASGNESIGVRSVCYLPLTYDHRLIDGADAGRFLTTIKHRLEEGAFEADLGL
Description: DlaT inhibition (Dlat IC50); DTNB peroxidase assay with Lpd, DlaT and AhpD. It is filed as biochemical. Particulars: Dlat IC50 category.
Broadly, the IC50 is the concentration that gives 50% inhibition. On to `O=C(O)C(c1ccccc1)N1C(=O)C(=Cc2ccc(-c3ccccc3Cl)o2)SC1=S` (stereo not shown) [Compound B1], for which the IC50 was < 10 µM.
Still for that read-out and setting: with `O=C(O)C(c1ccccc1)N1C(=O)C(=Cc2ccc(-c3cccc(Cl)c3)o2)SC1=S` (stereo not shown) [Compound B2] the figure was < 10 µM; with `O=C(O)CCN1C(=O)C(=Cc2ccc(-c3cccc(C(F)(F)F)c3)o2)SC1=S` [Compound B3], < 10 µM.
`O=C(O)CCN1C(=O)C(=Cc2ccc(-c3ccccc3C(F)(F)F)o2)SC1=S` [Compound B4] yielded an IC50 of 11 to 40 µM.
`O=C(O)CCN1C(=O)C(=Cc2ccc(-c3ccccc3Cl)o2)SC1=S` [Compound B5] registered an IC50 of 11 to 40 µM.
`O=C(O)CN1C(=O)C(=Cc2ccc(-c3ccccc3Cl)o2)SC1=S` [Compound B6] gave an IC50 of 11 to 40 µM.
The same measure, in the same setting: under `O=C(O)CCN1C(=O)C(=Cc2cccc(-c3ccccc3Cl)n2)SC1=S` [Compound B7] stands 41 to 80 µM.
Same read-out and setting: under `O=C(O)C(c1ccccc1)N1C(=O)C(=Cc2cccc(-c3ccccc3Cl)n2)SC1=S` (stereo not shown) [Compound B8] stands 11 to 40 µM; under `O=C(O)C(c1ccccc1)N1C(=O)C(=Cc2ccc(-c3ccc(Cl)cc3)o2)SC1=S` (stereo not shown) [Compound B9], < 10 µM.
Turning to `O=C(O)C(c1ccccc1)N1C(=O)C(=Cc2ccc(-c3ccc(Cl)c(Cl)c3)o2)SC1=S` (stereo not shown) [Compound B10], the 50% inhibitory concentration (IC50) was < 10 µM.
Same read-out and setting: under `O=C(O)CCCCCN1C(=O)C(=Cc2ccc(-c3ccccc3Cl)o2)SC1=S` [Compound B11] stands < 10 µM.
As for `O=C(O)CCCCCN1C(=O)C(=Cc2ccc(-c3cccc(Cl)c3)o2)SC1=S` [Compound B12], the IC50 is < 10 µM.
The same measure, in the same setting: under `O=C(O)CCCCCN1C(=O)C(=Cc2ccc(-c3ccc(Cl)cc3)o2)SC1=S` [Compound B13] stands < 10 µM; under `O=C(O)CCCCCN1C(=O)C(=Cc2ccc(-c3ccc(Cl)c(Cl)c3)o2)SC1=S` [Compound B14], < 10 µM.
As for `O=C(O)CCCCCN1C(=O)C(=Cc2cccc(-c3ccccc3Cl)n2)SC1=S` [Compound B15], the IC50 was 11 to 40 µM.
On the same count and under the same terms, under `O=C(O)CN1C(=O)C(=Cc2ccc(-c3ccc(-c4ccccc4)cc3)o2)SC1=S` [Compound B16] stands < 10 µM.
The same measure, in the same setting: under `O=C(O)CCN1C(=O)C(=Cc2ccc(-c3ccc(-c4ccccc4)cc3)o2)SC1=S` [Compound B17] stands 11 to 40 µM; under `O=C(O)CCCCCN1C(=O)C(=Cc2ccc(-c3ccc(-c4ccccc4)cc3)o2)SC1=S` [Compound B18], < 10 µM.
`O=C(O)C(c1ccccc1)N1C(=O)C(=Cc2ccc(-c3ccc(-c4ccccc4)cc3)o2)SC1=S` (stereo not shown) [Compound B19]: the 50% inhibitory concentration (IC50) is < 10 µM.
Consider `O=C(O)CCCCCN1C(=O)C(=Cc2ccc(-c3cc(C(F)(F)F)ccc3Cl)o2)SC1=S` [Compound B20], for which the IC50 was < 10 µM.
Same read-out and setting: with `COc1ccc(-c2ccc(C=C3SC(=S)N(CCCCCC(=O)O)C3=O)o2)cc1Cl` [Compound B21] the figure was 11 to 40 µM.
Still for that read-out and setting: with `O=C(O)CCCCCN1C(=O)C(=Cc2ccc(-c3cccc(C(F)(F)F)c3)o2)SC1=S` [Compound B22] the figure was < 10 µM.
Same read-out and setting: with `O=C(O)CCCCCN1C(=O)C(=Cc2ccc(-c3ccccc3C(F)(F)F)o2)SC1=S` [Compound B23] the figure was 11 to 40 µM.
`O=C(O)CCCCCN1C(=O)C(=Cc2ccc(-c3ccccc3OC(F)(F)F)o2)SC1=S` [Compound B24]: the IC50 is < 10 µM.
The same measure, in the same setting: with `O=C(O)C(c1ccccc1)N1C(=O)C(=Cc2ncc(-c3cccc(C(F)(F)F)c3)s2)SC1=S` (stereo not shown) [Compound B25] the figure was < 10 µM; with `O=C(O)CCN1C(=O)C(=Cc2ccc(-c3ccc(O)cc3)o2)SC1=S` [Compound B26], 41 to 80 µM.
Regarding `O=C(O)CCCCCN1C(=O)C(=Cc2ccc(-c3ccc(O)cc3)o2)SC1=S` [Compound B27], the IC50 is < 10 µM.

The same assay, now with this note: Table 1, Compounds A1 to A294; read-out: Dlat IC50 category.
On to `O=C(O)c1ccc(F)c(N2C(=O)C(=Cc3nc(-c4ccccc4)cs3)SC2=S)c1` [Compound A252], for which the IC50 was in the range of 11 to 40 µM.
Same read-out and setting: under `COc1ccc(C)cc1-c1ccc(C=C2SC(=S)N(c3cccc(C(=O)O)c3)C2=O)o1` [Compound A253] stands < 10 µM; under `COc1ccc(C)cc1-c1ccc(C=C2SC(=S)N(c3cc(C(=O)O)ccc3F)C2=O)o1` [Compound A254], < 10 µM; under `O=C(O)c1cc(N2C(=O)C(=Cc3ccc(-c4ccccc4Cl)o3)SC2=S)ccc1F` [Compound A255], 11 to 40 µM.
On the same count and under the same terms, under `O=C(O)c1cc(N2C(=O)C(=Cc3ccc(-c4ccccc4F)o3)SC2=S)ccc1F` [Compound A256] stands 11 to 40 µM.
The same measure, in the same setting: under `Cc1ccccc1-c1ccc(C=C2SC(=S)N(c3ccc(F)c(C(=O)O)c3)C2=O)o1` [Compound A257] stands 11 to 40 µM.
As to `O=C(O)c1cc(N2C(=O)C(=Cc3ccc(-c4ccc(Cl)cc4)o3)SC2=S)ccc1F` [Compound A258], the IC50 is < 10 µM.
The same measure, in the same setting: under `O=C(O)c1cc(N2C(=O)C(=Cc3ccc(-c4ccc(F)cc4)o3)SC2=S)ccc1F` [Compound A259] stands 11 to 40 µM; under `Cc1ccc(-c2ccc(C=C3SC(=S)N(c4ccc(F)c(C(=O)O)c4)C3=O)o2)cc1` [Compound A260], < 10 µM.
The same measure, in the same setting: with `CC(=O)Nc1ccc(-c2ccc(C=C3SC(=S)N(c4cc(C(=O)O)cc(C(F)(F)F)c4)C3=O)o2)cc1` [Compound A261] the figure was < 10 µM; with `CC(=O)Nc1ccc(-c2ccc(C=C3SC(=S)N(c4ccc(F)c(C(=O)O)c4)C3=O)o2)cc1` [Compound A262], 11 to 40 µM.
As to `CCCCc1ccc(-c2ccc(C=C3SC(=S)N(c4cccc(C(=O)O)c4)C3=O)o2)cc1` [Compound A263], the concentration for half-maximal inhibition (IC50) was < 10 µM.
Same read-out and setting: with `CCCCc1ccc(-c2ccc(C=C3SC(=S)N(c4cc(C(=O)O)ccc4F)C3=O)o2)cc1` [Compound A264] the figure was < 10 µM; with `CCCCc1ccc(-c2ccc(C=C3SC(=S)N(c4ccc(F)c(C(=O)O)c4)C3=O)o2)cc1` [Compound A265], < 10 µM.
Take `CCCCc1ccc(-c2ccc(C=C3SC(=S)N(c4cc(C(=O)O)cc(C(F)(F)F)c4)C3=O)o2)cc1` [Compound A266]: the IC50 is < 10 µM.
For the molecule `CS(=O)(=O)c1ccc(-c2ccc(C=C3SC(=S)N(c4cc(C(=O)O)cc(C(F)(F)F)c4)C3=O)o2)cc1` [Compound A267], the IC50 was < 10 µM.
Still for that read-out and setting: with `CS(=O)(=O)c1ccc(-c2ccc(C=C3SC(=S)N(c4ccc(F)c(C(=O)O)c4)C3=O)o2)cc1` [Compound A268] the figure was < 10 µM; with `CCCc1ccc(-c2ccc(C=C3SC(=S)N(c4cccc(C(=O)O)c4)C3=O)o2)cc1` [Compound A269], < 10 µM; with `CCCc1ccc(-c2ccc(C=C3SC(=S)N(c4cc(C(=O)O)ccc4F)C3=O)o2)cc1` [Compound A270], < 10 µM.
On the same count and under the same terms, under `CCCc1ccc(-c2ccc(C=C3SC(=S)N(c4ccc(F)c(C(=O)O)c4)C3=O)o2)cc1` [Compound A271] stands < 10 µM.
With `CCCc1ccc(-c2ccc(C=C3SC(=S)N(c4cc(C(=O)O)cc(C(F)(F)F)c4)C3=O)o2)cc1` [Compound A272], the half-inhibitory concentration (IC50) lay in the range of 11 to 40 µM.
Same read-out and setting: with `CN(C)c1ccc(N2C(=O)C(=Cc3ccc(-c4ccccc4Cl)o3)SC2=S)cc1C(=O)O` [Compound A274] the figure was 11 to 40 µM; with `CN(C)c1ccc(N2C(=O)C(=Cc3ccc(-c4cccc(Cl)c4)o3)SC2=S)cc1C(=O)O` [Compound A275], 11 to 40 µM; with `O=C(O)c1cc(N2C(=O)C(=Cc3ccc(-c4ccccc4OCc4ccccc4)o3)SC2=S)ccc1F` [Compound A279], < 10 µM.
In the case of `O=C(O)c1cc(N2C(=O)C(=Cc3ccc(-c4ccccc4C(F)(F)F)o3)SC2=S)ccc1F` [Compound A280], the IC50 was 11 to 40 µM.
Same read-out and setting: under `O=C(O)c1cc(N2C(=O)C(=Cc3ccc(-c4ccccc4OC(F)(F)F)o3)SC2=S)ccc1F` [Compound A281] stands < 10 µM; under `CSc1ccccc1-c1ccc(C=C2SC(=S)N(c3ccc(F)c(C(=O)O)c3)C2=O)o1` [Compound A282], < 10 µM.
On the same count and under the same terms, under `O=C(O)c1cc(N2C(=O)C(=Cc3ccc(-c4ccccc4Oc4ccccc4)o3)SC2=S)ccc1F` [Compound A283] stands < 10 µM.
Same read-out and setting: with `O=C(O)c1cc(N2C(=O)C(=Cc3ccc(-c4ccccc4-c4ccccc4)o3)SC2=S)ccc1F` [Compound A284] the figure was < 10 µM; with `CNS(=O)(=O)c1ccc(-c2ccc(C=C3SC(=S)N(c4cccc(C(=O)O)c4)C3=O)o2)cc1` [Compound A286], 11 to 40 µM; with `CNS(=O)(=O)c1ccc(-c2ccc(C=C3SC(=S)N(c4ccc(F)c(C(=O)O)c4)C3=O)o2)cc1` [Compound A287], 11 to 40 µM.
Consider `NS(=O)(=O)c1ccc(-c2ccc(C=C3SC(=S)N(c4cccc(C(=O)O)c4)C3=O)o2)cc1` [Compound A288], for which the 50% inhibitory concentration (IC50) was in the range of 11 to 40 µM.
The same measure, in the same setting: under `O=C(O)c1ccc(-c2ccc(C=C3SC(=S)N(c4ccccc4)C3=O)o2)cc1O` [Compound A289] stands < 10 µM; under `O=C(O)c1ccc(-c2ccc(C=C3SC(=S)N(c4cccc(O)c4)C3=O)o2)cc1` [Compound A290], < 10 µM; under `O=C(O)c1ccc(-c2ccc(C=C3SC(=S)N(c4ccc(O)cc4)C3=O)o2)cc1` [Compound A291], < 10 µM.
On the same count and under the same terms, with `NC(=O)c1cccc(N2C(=O)C(=Cc3ccc(-c4ccc(C(=O)O)cc4)o3)SC2=S)c1` [Compound A293] the figure was 11 to 40 µM; with `NS(=O)(=O)c1ccc(N2C(=O)C(=Cc3ccc(-c4ccc(C(=O)O)cc4)o3)SC2=S)cc1` [Compound A294], < 10 µM.
